Experimental data from the supplement of paper PMC10307832.

Key:
Assay in all cases: relative viability (nuclei count vs DMSO), 5 days (fraction); higher = more cells survive
Ispinesib + Vorinostat = compound: Cc1ccc(C(=O)N(CCCN)[C@@H](c2nc3cc(Cl)ccc3c(=O)n2Cc2ccccc2)C(C)C)cc1 [Ispinesib] + O=C(CCCCCCC(=O)Nc1ccccc1)NO [Vorinostat] (partner 1 µM)
Procedure, shortened: (§1)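 Nuclei were stained with Hoechst during a one-step fixation (final 0.05% Triton X-100, 1% formaldehyde, 1 ug/ml Hoechst) carried out 5 days after dosing, then counted on 4× images. The cells, lung cancer lines in 1536-well plates, had been dosed by pin tool the day after seeding with one drug alone or a fixed anchor-drug dose plus five library-drug doses (not always all listed) in √10 steps. Relative viability is the nuclei count in treated wells divided by that in vehicle wells, and each value is the median of duplicate plates.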

Linsitinib + Alpelisib = compound: C[C@]1(O)C[C@@H](c2nc(-c3ccc4ccc(-c5ccccc5)nc4c3)c3c(N)nccn32)C1 [Linsitinib] + Cc1nc(NC(=O)N2CCC[C@H]2C(N)=O)sc1-c1ccnc(C(C)(C)C(F)(F)F)c1 [Alpelisib] (partner 2 µM)
Procedure, shortened: as §1

Linsitinib + Palbociclib = compound: C[C@]1(O)C[C@@H](c2nc(-c3ccc4ccc(-c5ccccc5)nc4c3)c3c(N)nccn32)C1 [Linsitinib] + CC(=O)c1c(C)c2cnc(Nc3ccc(N4CCNCC4)cn3)nc2n(C2CCCC2)c1=O [Palbociclib] (partner 0.5 µM)
Procedure, shortened: as §1

Ispinesib + Pemetrexed = compound: Cc1ccc(C(=O)N(CCCN)[C@@H](c2nc3cc(Cl)ccc3c(=O)n2Cc2ccccc2)C(C)C)cc1 [Ispinesib] + Nc1nc2[nH]cc(CCc3ccc(C(=O)N[C@@H](CCC(=O)O)C(=O)O)cc3)c2c(=O)[nH]1 [Pemetrexed] (partner 0.2 µM)
Procedure, shortened: as §1

Row | Cell Line | relative viability (Ispinesib + Vorinostat; first compound 0.001 µM) | relative viability (Ispinesib + Vorinostat; first compound 0.003162 µM) | relative viability (Ispinesib + Vorinostat; first compound 0.01 µM) | relative viability (Ispinesib + Vorinostat; first compound 0.03162 µM) | relative viability (Ispinesib + Vorinostat; first compound 0.1 µM) | relative viability (Linsitinib + Alpelisib; first compound 0.01 µM) | relative viability (Linsitinib + Alpelisib; first compound 0.03162 µM) | relative viability (Linsitinib + Alpelisib; first compound 0.1 µM) | relative viability (Linsitinib + Alpelisib; first compound 0.3162 µM) | relative viability (Linsitinib + Alpelisib; first compound 1 µM) | relative viability (Linsitinib + Palbociclib; first compound 0.01 µM) | relative viability (Linsitinib + Palbociclib; first compound 0.03162 µM) | relative viability (Linsitinib + Palbociclib; first compound 0.1 µM) | relative viability (Linsitinib + Palbociclib; first compound 0.3162 µM) | relative viability (Linsitinib + Palbociclib; first compound 1 µM) | relative viability (Ispinesib + Pemetrexed; first compound 0.001 µM) | relative viability (Ispinesib + Pemetrexed; first compound 0.003162 µM) | relative viability (Ispinesib + Pemetrexed; first compound 0.01 µM) | relative viability (Ispinesib + Pemetrexed; first compound 0.03162 µM) | relative viability (Ispinesib + Pemetrexed; first compound 0.1 µM)
1 | COR-L23 | 0.422 | 0.448 | 0.342 | 0.14 | 0.175 | 0.725 | 0.907 | 0.769 | 0.623 | 0.55 | 0.278 | 0.3 | 0.249 | 0.198 | 0.226 | 0.197 | 0.195 | 0.183 | 0.158 | 0.147
2 | NCI-H3122 | 1 | 1.09 | 1.07 | 0.855 | 0.119 | 0.85 | 0.763 | 0.768 | 0.699 | 0.758 | 0.202 | 0.222 | 0.17 |  | 0.216 | 0.196 | 0.221 | 0.198 | 0.217 | 0.107
3 | NCI-H2170 | 0.923 | 0.77 | 0.969 | 0.502 | 0.199 | 0.865 | 0.777 | 0.698 | 0.745 | 0.68 | 0.386 | 0.4 | 0.381 |  | 0.412 | 0.357 | 0.266 | 0.256 | 0.205 | 0.158
4 | NCI-H1793 | 0.702 | 0.881 | 0.925 | 0.38 | 0.318 | 0.71 | 0.734 | 0.738 | 0.615 | 0.738 | 0.288 | 0.342 | 0.283 | 0.26 | 0.26 | 1.09 | 0.943 | 1.12 | 0.775 | 0.232
5 | BEN | 0.538 | 0.676 | 0.642 | 0.478 | 0.374 | 1.09 | 1.02 | 0.935 | 0.662 | 1.04 | 0.487 | 0.422 | 0.45 | 0.361 | 0.468 | 0.826 | 0.953 | 0.797 | 0.471 | 0.278
6 | NCI-H647 | 0.637 | 0.57 | 0.497 | 0.333 | 0.141 | 1.14 | 1.19 | 0.914 |  | 0.951 | 0.377 | 0.459 | 0.32 | 0.171 | 0.322 | 0.165 | 0.161 | 0.124 | 0.118 | 0.0916
7 | PC-14 | 0.773 | 0.569 | 0.343 | 0.103 | 0.134 | 0.799 | 0.89 | 0.968 | 0.792 | 0.837 | 0.513 | 0.46 | 0.521 | 0.429 | 0.507 | 0.132 | 0.139 | 0.0661 | 0.0425 | 0.0577
